This is an account of results in patent US20210052771A1, “NANOPARTICULATE MINERALIZED COLLAGEN GLYCOSAMINOGLYCAN SCAFFOLD WITH AN ANTI-RESORPTION FACTOR” (THE REGENTS OF THE UNIVERSITY OF CALIFORNIA, priority 2018, published 2021).

SMILES strings stand for the structures.

The test system of assay [1] is canonical BMP receptor signaling pathway. Briefly: Western blot of hMSCs on Col-GAG and MC-GAG with DMH1. The format is cell-based, human. To be noted: 50 μM. The protocol: (§1) Osteogenic differentiation of hMSCs on Col-GAG and MC-GAG: 3×10^5 hMSCs were seeded onto 8 mm discs of CG-GAG and MC-GAG scaffolds in proliferation media. 24 h after seeding, media was switched to osteogenic differentiation media consisting of 10 mM β-glycerophosphate, 50 μg/mL ascorbic acid, and 0.1 μM dexamethasone. For inhibitor studies, scaffolds were treated or untreated with dorsomorphin homologue 1 (DMH1; Sigma-Aldrich) or PD98059 (Cell Signaling Technologies, Beverly, Mass.) separately, all at a concentration of 50 μM. Fresh DMH1 and PD98059 were added to each media change every 3 days.
(§2) Western blot: Lysates were prepared from scaffolds at 0, 4, 14, and 24 days of culture using SDS sample buffer and equal amounts were subjected to 4-20% SDS-PAGE (Bio-Rad, Hercules, Calif.). Western blot analysis was carried out with antibodies against OPG, RANKL, phosphorylated small mothers against decapentaplegic 1/5 (p-Smad1/5), total Smad5, phosphorylated extracellular regulated kinase 1/2 (p-ERK1/2), total ERK1/2, and (3-actin followed by 1:4000 dilutions of HRP-conjugated IgG antibodies (Bio-Rad, Hercules, Calif.) and an enhanced chemiluminescent substrate (Thermo Scientific, Rockford, Ill.). For detection of p-Smad1/5 and total Smad5, 10 μg of lysate was loaded per lane. For detection of OPG, RANKL, p-ERK1/2, total ERK1/2, and β-actin, 20 μg of lysate was loaded per lane. All antibodies were obtained from Cell Signaling Technologies (Beverly, Mass.) with the exception of RANKL, OPG and β-actin antibodies which were obtained from Santa Cruz Biotechnology (Santa Cruz, Calif.). Imaging analysis was carried out using ImageJ (NIH, Bethesda, Md.).
On the technique in general: A western blot detects proteins with antibodies after separation by electrophoresis.

In assay [2] the test system is MEK1/ERK1/2 signaling pathway. Briefly: Western blot of hMSCs on Col-GAG and MC-GAG with PD98059. The format is cell-based, human. As to conditions: 50 μM. The protocol: as §1, §2
Where [3] appears, read: all timepoints, either material.

Regarding `CC(C)Oc1ccc(-c2cnc3c(-c4ccnc5ccccc45)cnn3c2)cc1` [DMH1, dorsomorphin homologue 1], in assay [1], the “total Smad5, total ERK1/2, RANKL, or actin” value is given as “No differences”. In assay [1] (MC-GAG at day 4), the “phosphorylated ERK1/2” value is “small elevation”. In assay [1] (setting [3]), the “phosphorylation of Smad1/5” value was “partially decreased”. In addition, the OPG expression entry in assay [1] (both Col-GAG and MC-GAG, particularly day 14) is “increased”.
`COc1cccc(-c2cc(=O)c3ccccc3o2)c1N` [PD98059]: in assay [2], the “phosphorylated Smad1/5, total Smad5, total ERK1/2, or actin” value is listed as “no effects”. Besides, the OPG protein expression entry in assay [2] (Col-GAG) is “no differences”; in assay [2] (MC-GAG, all timepoints) it was “decreased”. The RANKL expression result is reported as “no differences” in assay [2] (Col-GAG) and “downregulated” in assay [2] (MC-GAG, particularly day 24). Besides, in assay [2] (setting [3]), the “phosphorylated ERK1/2” value is given as “decreased”.
